# Read-outs that look alike come from different tables or passages of the source.
# Legend:
# [1] = system: NCI-H358 cells (express KRas G12C), Phospho-ERK; experiment: Cellular inhibition of KRas G12C: Phospho-ERK in NCI-H358 cells; format: cell-based; settings: pERK(Thr202/Tyr204) normalized with GAPDH, NCI-H358 cells, 3 hours, read-out: IC50
# How it was run: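 IC50 derived by 4-parameter fit of GAPDH-normalized pERK(Thr202/Tyr204) signal, as percent of DMSO control. Signal came from in-cell immunodetection with infrared secondaries after 3 h compound exposure of KRas G12C NCI-H358 cells at 0.5% DMSO.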
# KRas G12C = KRas G12C (Homo sapiens, UniProt P01116, C118S/C51S/C80L/G12C); experiment: KRas G12C Modification Assay (LCMS detection of covalent adduct); format: binding; settings: normalized percent of control, tested at 5 μM concentration for 3 hours
# How it was run: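 Cys-light KRas G12C mutant protein incubated with compound in K-Ras assay buffer, reactions quenched at set time points with 25 mM acetic acid and analysed by intact-protein LC/MS on a C-3 column. Deconvoluted mass heights expressed as percent of control (POC) relative to compound-free protein.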
POC (KRas G12C),POC (KRas G12C; 5 µM),SMILES,"IC50 ([1]; Homo sapiens, NCI-H358, 3 h)",IC50 [1],IC50 ([1]; Homo sapiens)
C (“C”>50% POC),–,"C=CC(=O)N1CCN(c2nc(OC[C@@H]3COCCN3C)nc3c2CCN(c2cccc4ccccc24)C3)CC1CC#N (stereo partly drawn) [Example 272, 2-(1-acryloyl-4-(2-(((S)-4-methylmorpholin-3-yl)methoxy)-7-(naphthalen-1-yl)-5,6,7,8-tetrahydropyrido[3,4-d]pyrimidin-4-yl)piperazin-2-yl)acetonitrile]",0.0001 to 1 µM,–,–
C (“C”>50% POC),–,"C=CC(=O)N1CCN(c2nc(OC[C@H]3COCCN3C)nc3c2CCN(c2cccc4ccccc24)C3)CC1CC#N (stereo partly drawn) [Example 273, 2-(1-acryloyl-4-(2-(((R)-4-methylmorpholin-3-yl)methoxy)-7-(naphthalen-1-yl)-5,6,7,8-tetrahydropyrido[3,4-d]pyrimidin-4-yl)piperazin-2-yl)acetonitrile]",> 1 µM,–,–
C (“C”>50% POC),–,"C=CC(=O)N1CCN(c2nc(OC[C@H]3CCCN3C)nc3c2CCN(c2cccc(F)c2C(F)(F)F)C3)C[C@@H]1CC#N [Example 274, 2-((S)-1-acryloyl-4-(7-(3-fluoro-2-(trifluoromethyl)phenyl)-2-(((R)-1-methylpyrrolidin-2-yl)methoxy)-5,6,7,8-tetrahydropyrido[3,4-d]pyrimidin-4-yl)piperazin-2-yl)acetonitrile]",0.0001 to 1 µM,–,–
C (“C”>50% POC),–,"C=CC(=O)N1CCN(c2nc(OC[C@@H]3CCCN3C)nc3c2CCN(c2c(F)cccc2C(F)(F)F)C3)CC1CC#N (stereo partly drawn) [Example 275, 2-(1-acryloyl-4-(7-(2-fluoro-6-(trifluoromethyl)phenyl)-2-(((S)-1-methylpyrrolidin-2-yl)methoxy)-5,6,7,8-tetrahydropyrido[3,4-d]pyrimidin-4-yl)piperazin-2-yl)acetonitrile]",0.0001 to 1 µM,–,–
C (“C”>50% POC),–,"C=CC(=O)N1CCN(c2nc(OC[C@@H]3CCCN3C)nc3c2CCN(c2ccc(F)cc2C(F)(F)F)C3)CC1CC#N (stereo partly drawn) [Example 276, 2-(1-acryloyl-4-(7-(4-fluoro-2-(trifluoromethyl)phenyl)-2-(((S)-1-methylpyrrolidin-2-yl)methoxy)-5,6,7,8-tetrahydropyrido[3,4-d]pyrimidin-4-yl)piperazin-2-yl)acetonitrile]",0.0001 to 1 µM,–,–
C (“C”>50% POC),–,"C=CC(=O)N1CCN(c2nc(OC[C@@H]3CCCN3C)nc3c2CCN(c2cccc(Cl)c2C(F)(F)F)C3)CC1CC#N (stereo partly drawn) [Example 277, 2-(1-acryloyl-4-(7-(3-chloro-2-(trifluoromethyl)phenyl)-2-(((S)-1-methylpyrrolidin-2-yl)methoxy)-5,6,7,8-tetrahydropyrido[3,4-d]pyrimidin-4-yl)piperazin-2-yl)acetonitrile]",0.0001 to 1 µM,–,–
–,C (“C”>50% POC),"C=CC(=O)N1CCN(c2nc(OC[C@@H]3CCCN3C)nc3c2CCN(c2ccnc4ccccc24)C3)CC1CC#N (stereo partly drawn) [Example 278, 2-(1-acryloyl-4-(2-(((S)-1-methylpyrrolidin-2-yl)methoxy)-7-(quinolin-4-yl)-5,6,7,8-tetrahydropyrido[3,4-d]pyrimidin-4-yl)piperazin-2-yl)acetonitrile]",–,0.0001 to 1 µM,–
C (“C”>50% POC),–,"C=CC(=O)N1CCN(c2nc(OCCN(C)C)nc3c2CCN(c2ccccc2C(F)(F)F)C3)CC1CC#N (stereo not shown) [Example 279, 2-(1-acryloyl-4-(2-(2-(dimethylamino)ethoxy)-7-(2-(trifluoromethyl)phenyl)-5,6,7,8-tetrahydropyrido[3,4-d]pyrimidin-4-yl)piperazin-2-yl)acetonitrile]",0.0001 to 1 µM,–,–
C (“C”>50% POC),–,"C=CC(=O)N1CCN(c2nc(OCCCN3C[C@H]4C[C@@H]3CO4)nc3c2CCN(c2ccccc2C(F)(F)F)C3)CC1CC#N (stereo partly drawn) [Example 280, 2-(4-(2-(3-((1R,4R)-2-oxa-5-azabicyclo[2.2.1]heptan-5-yl)propoxy)-7-(2-(trifluoromethyl)phenyl)-5,6,7,8-tetrahydropyrido[3,4-d]pyrimidin-4-yl)-1-acryloylpiperazin-2-yl)acetonitrile]",–,–,0.0001 to 1 µM
C (“C”>50% POC),–,"C=CC(=O)N1CCN(c2nc(OC[C@@H]3CCN(C)C3)nc3c2CCN(c2ccccc2C(F)(F)F)C3)CC1CC#N (stereo partly drawn) [Example 281, 2-(1-acryloyl-4-(2-(((R)-1-methylpyrrolidin-3-yl)methoxy)-7-(2-(trifluoromethyl)phenyl)-5,6,7,8-tetrahydropyrido[3,4-d]pyrimidin-4-yl)piperazin-2-yl)acetonitrile]",0.0001 to 1 µM,–,–
A (“A”≤25% POC),–,"CC(C)=CC(=O)N1CCN(c2nc(OC[C@@H]3CCCN3C)nc3c2CCN(c2cccc4ccccc24)C3)CC1CC#N (stereo partly drawn) [Example 282, 2-(1-(3-methylbut-2-enoyl)-4-(2-(((S)-1-methylpyrrolidin-2-yl)methoxy)-7-(naphthalen-1-yl)-5,6,7,8-tetrahydropyrido[3,4-d]pyrimidin-4-yl)piperazin-2-yl)acetonitrile]",> 1 µM,–,–
C (“C”>50% POC),–,"C=CC(=O)N1CCN(c2nc(OC[C@H]3CCCN3C)nc3c2CCN(c2ccccc2C(F)(F)F)C3)CC1CC#N (stereo partly drawn) [Example 283, 2-(1-acryloyl-4-(2-(((R)-1-methylpyrrolidin-2-yl)methoxy)-7-(2-(trifluoromethyl)phenyl)-5,6,7,8-tetrahydropyrido[3,4-d]pyrimidin-4-yl)piperazin-2-yl)acetonitrile]",0.0001 to 1 µM,–,–
C (“C”>50% POC),–,"C=CC(=O)N1CCN(c2nc(OCCN(CC)CC)nc3c2CCN(c2ccccc2C(F)(F)F)C3)CC1CC#N (stereo not shown) [Example 284, 2-(1-acryloyl-4-(2-(2-(diethylamino)ethoxy)-7-(2-(trifluoromethyl)phenyl)-5,6,7,8-tetrahydropyrido[3,4-d]pyrimidin-4-yl)piperazin-2-yl)acetonitrile]",0.0001 to 1 µM,–,–
C (“C”>50% POC),–,"C=CC(=O)N1CCN(c2nc(OC[C@@H]3CCCN3C)nc3c2CCN(c2cccc4ccc(Cl)cc24)C3)CC1CC#N (stereo partly drawn) [Example 286, 2-(1-acryloyl-4-(7-(7-chloronaphthalen-1-yl)-2-(((S)-1-methylpyrrolidin-2-yl)methoxy)-5,6,7,8-tetrahydropyrido[3,4-d]pyrimidin-4-yl)piperazin-2-yl)acetonitrile]",–,0.0001 to 1 µM,–
C (“C”>50% POC),–,"C=CC(=O)N1CCN(c2nc(OC[C@@H]3CCCN3C)nc3c2CCN(c2cccc4c(F)cccc24)C3)CC1CC#N (stereo partly drawn) [Example 287, 2-[4-[7-(5-fluoro-1-naphthyl)-2-[[(2S)-1-methylpyrrolidin-2-yl]methoxy]-6,8-dihydro-5H-pyrido[3,4-d]pyrimidin-4-yl]-1-prop-2-enoyl-piperazin-2-yl]acetonitrile]",–,0.0001 to 1 µM,–
A (“A”≤25% POC),–,"C=CC(=O)N1CCN(c2nc(OC[C@@H]3CCCN3C)nc3c2CCN(c2cccc4ccc(OC)cc24)C3)CC1CC#N (stereo partly drawn) [Example 288, 2-[4-[7-(7-methoxy-1-naphthyl)-2-[[(2S)-1-methylpyrrolidin-2-yl]methoxy]-6,8-dihydro-5H-pyrido[3,4-d]pyrimidin-4-yl]-1-prop-2-enoyl-piperazin-2-yl]acetonitrile]",–,> 1 µM,–

SMILES,POC (KRas G12C),POC (KRas G12C; 5 µM),"IC50 ([1]; Homo sapiens, NCI-H358, 3 h)",IC50 [1],IC50 ([1]; Homo sapiens)
"C=CC(=O)N1CCN(c2nc(OC[C@@H]3CCCN3C(C)C)nc3c2CCN(c2cccc4ccccc24)C3)CC1CC#N (stereo partly drawn) [Example 285, 2-[4-[2-[[(2S)-1-isopropylpyrrolidin-2-yl]methoxy]-7-(1-naphthyl)-6,8-dihydro-5H-pyrido[3,4-d]pyrimidin-4-yl]-1-prop-2-enoyl-piperazin-2-yl]acetonitrile]",C (“C”>50% POC),–,0.0001 to 1 µM,–,–
